44 molecules from US9951046B2, “TRPA1 modulators” (Algomedix, Inc., priority 2014, dated 2018) can be followed below.

T1 sequence (O75762 whole entry): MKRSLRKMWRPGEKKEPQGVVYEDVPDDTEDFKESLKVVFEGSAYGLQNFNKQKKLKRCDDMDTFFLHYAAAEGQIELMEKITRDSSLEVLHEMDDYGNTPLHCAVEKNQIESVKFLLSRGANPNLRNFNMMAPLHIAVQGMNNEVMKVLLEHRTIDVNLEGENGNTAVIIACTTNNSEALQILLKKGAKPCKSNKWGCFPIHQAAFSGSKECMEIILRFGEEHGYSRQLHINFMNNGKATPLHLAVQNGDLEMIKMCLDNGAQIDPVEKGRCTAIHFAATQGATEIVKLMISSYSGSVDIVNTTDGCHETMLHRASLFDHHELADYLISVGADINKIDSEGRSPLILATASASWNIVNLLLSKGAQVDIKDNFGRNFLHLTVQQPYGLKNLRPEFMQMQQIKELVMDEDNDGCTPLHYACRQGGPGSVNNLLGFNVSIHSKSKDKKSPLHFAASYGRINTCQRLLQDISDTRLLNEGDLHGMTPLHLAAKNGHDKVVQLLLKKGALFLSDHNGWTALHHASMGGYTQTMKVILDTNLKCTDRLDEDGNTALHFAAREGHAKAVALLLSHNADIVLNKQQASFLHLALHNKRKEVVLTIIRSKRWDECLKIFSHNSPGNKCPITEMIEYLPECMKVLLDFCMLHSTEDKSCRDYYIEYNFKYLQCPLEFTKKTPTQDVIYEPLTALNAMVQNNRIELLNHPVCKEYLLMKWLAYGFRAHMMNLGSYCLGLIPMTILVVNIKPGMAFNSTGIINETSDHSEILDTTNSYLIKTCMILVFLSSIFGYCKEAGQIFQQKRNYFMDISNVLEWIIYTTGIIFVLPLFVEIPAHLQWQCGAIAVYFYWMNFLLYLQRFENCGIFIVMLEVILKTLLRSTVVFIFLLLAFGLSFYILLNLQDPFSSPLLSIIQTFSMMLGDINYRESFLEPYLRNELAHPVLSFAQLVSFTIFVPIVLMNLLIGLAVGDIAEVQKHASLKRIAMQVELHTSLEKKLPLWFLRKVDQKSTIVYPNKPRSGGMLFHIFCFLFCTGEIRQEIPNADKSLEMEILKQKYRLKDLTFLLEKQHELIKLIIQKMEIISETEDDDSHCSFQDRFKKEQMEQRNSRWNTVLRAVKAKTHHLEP

The first test concerns the target T1, human TRPA1 (Homo sapiens, UniProt O75762).
T1 construct: expressed in transfected cells
Nature of the test: Cell-based functional intracellular calcium ([Ca2+]i) assay, Fluo-4/Fluo-8, FlexStation, challenge with reference TRPA1 agonist (FFA, AITC or 4-HNE).
Details: not given
The method, then: A stable HEK293 cell line that expresses human TRPA1 in an inducible manner was employed in this assay. […] The expression of TRPA1 was induced by including 1 μg/ml doxycycline in the culture medium. For the induced cells, ruthenium red (5 μM) was also added to minimize the constitutive TRPA1 channel activity and cells were used 14-18 hrs after induction. To measure [Ca^2+]i changes, cells were seeded in wells of 96-well plates at ˜100,000 cells/well and grown for 14-18 hrs to reach confluency. To prevent cell loss from subsequent washing, the wells were treated with 20 μg/ml polyornithine (MW>30,000, Sigma, St Louis, Mo.) for >15 min and rinsed once with Hank's balanced salt solution without Mg^2+ and Ca^2+. […] In some experiments, Fluo-8-AM was used instead of Fluo-4-AM as the calcium-sensitive fluorescent probe. Probenecid (2 mM) was included in all solutions to prevent the leakage of Fluo-4 or Fluo-8 from the cells. At the end of the incubation, cells were washed three times with ECS and placed in 80 μL of the same solution. Fluorescence changes were measured using a fluid handling integrated fluorescence plate reader, FlexStation (Molecular Devices, Sunnyvale, Calif.). Stock solutions of test compounds were initially solubilized in 100% DMSO and then serially diluted to achieve the desired final concentration. […] Drugs were diluted into ECS at 2× or 3× the desired final concentrations and delivered to the sample plate by an integrated robotic 8-channel pipettor at preprogrammed time points. […] Experiments were performed at 20-25° C. For certain experiments, 0.1% BSA was included with the cells and test compounds.
The kinetic data obtained at each test concentration of drug represents a series of fluorescent intensities as a function of time.
Using a sequential addition protocol, test compounds were initially applied to the cells loaded with Fluo-4 or Fluo-8 and fluorescence changes in each well monitored for 2.5 min. The plate was read again in a kinetic mode after a 15-30 min incubation with the test compounds after obtaining baseline values (about 30 s) and subsequent addition of challenge with a reference TRPA1 agonist. Reference TRPA1 agonists in testing each compound included at least one of flufenamic acid (FFA), allyl isothiocyanate (AITC) and 4-hydroxynonenal (4-HNE).
Antagonist activity can be expressed in terms of IC50 with respect to TRPA1 and agonist activity can be expressed in terms of EC50 with respect to TRPA1.
As for `CC1COC2(CCN(C(=O)c3cc(-c4ccncc4)n(-c4ccc(C(F)(F)F)cc4)n3)CC2)O1` (centres unmarked) [Compound 71], the IC50 was greater than 25 µM. The same measure, in the same setting: under `O=C(c1cc(-c2cccnc2)n(-c2ccc(F)c(C(F)(F)F)c2)n1)N1C2CCC1CC1(C2)C(=O)NCN1c1ccc(F)cc1` (centres unmarked) [Compound 333] stands 0.001 to 5 µM; under `O=C(c1cc(-c2ccncc2)n(-c2cc(C(F)(F)F)cc(C(F)(F)F)c2)n1)N1CCC2(CC1)OCCO2` [Compound 160], greater than 25 µM. For `O=C(c1cc(-c2ccncc2)n(-c2ccc(C(F)(F)F)nc2)n1)N1CCC(N2C(=O)Cc3ccccc32)CC1` [Compound 119], the IC50 was greater than 25 µM. Same read-out and setting: under `CC1COC2(CCN(C(=O)c3cc(-c4ccncc4)n(-c4cnccn4)n3)CC2)O1` (centres unmarked) [Compound 135] stands greater than 25 µM. Still for that read-out and setting: under `CCCC1COC2(CCN(C(=O)c3cc(-c4ccncc4)n(-c4ccc(C(F)(F)F)cc4)n3)CC2)O1` (centres unmarked) [Compound 74] stands greater than 25 µM.

Still in this test, the particulars now being: HEK293 cells expressing human TRPA1; IC50 class after addition of reference TRPA1 agonist (FFA, AITC or 4-HNE); read-out: human TRPA1-HEK Activity.
As for `O=C(c1cc(-c2ccccn2)n(-c2ccc(C(F)(F)F)c(F)c2)n1)N1CCC2(CC1)C(=O)NCN2c1ccc(F)cc1` [Compound 264], the IC50 fell in the range of 5 to 25 µM. For the molecule `Cc1cc(N2CNC(=O)C23CCN(C(=O)c2cc(-c4cccnc4)n(-c4ccc(C#N)c(F)c4)n2)CC3)cc(C)c1F` [Compound 329], the IC50 was 0.001 to 5 µM.

Turning to `CN1C(=O)COc2cc(NC(=O)c3cc(-c4ccncc4)n(-c4ccc(F)c(F)c4)n3)ccc21` [Compound 89], the IC50 was greater than 25 µM. As for `O=C(Nc1nc(-c2ccc(C(F)(F)F)cc2)cs1)c1cc(-c2ccncc2)n(-c2ccccc2)n1` [Compound 35], the IC50 was greater than 25 µM. In the case of `O=C(c1cc(-c2ccncc2)n(-c2ccc(C(F)(F)F)cc2)n1)N1CCC(N2C(=O)OC[C@H]2c2ccccc2)CC1` [Compound 62], the IC50 is greater than 25 µM.

Consider `O=C(c1cc(-c2ccncc2)n(-c2ccccc2)n1)N1CCC2(CCNC2=O)CC1` [Compound 13], for which the IC50 is greater than 25 µM.

In the case of `O=C(c1cc(-c2ccncc2)n(-c2ccc(C(F)(F)F)cc2)n1)N1CCC(n2c(=O)[nH]c3ccccc32)CC1` [Compound 144], the IC50 fell in the range of 5 to 25 µM. On the same count and under the same terms, under `O=C(c1cc(-c2ccncc2)n(-c2ccc(F)c(F)c2)n1)N1CCC2(CC1)OCc1ccccc12` [Compound 79] stands greater than 25 µM; under `O=C(c1cc(-c2ccncc2)n(-c2ccc(C(F)(F)F)c(F)c2)n1)N1CCC(c2nc3ccccc3o2)CC1` [Compound 108], greater than 25 µM. The same measure, in the same setting: under `CC1CC(n2c(=O)[nH]c3ccc(F)c(F)c32)CC(C)N1C(=O)c1cc(-c2cccnc2)n(-c2cc(F)c(F)c(F)c2)n1` (centres unmarked) [Compound 203] stands greater than 25 µM.

`Cc1cc(N2CNC(=O)C23CCN(C(=O)c2cc(-c4cccnc4)n(-c4cc(F)c(F)c(F)c4)n2)CC3)cc(C)c1F` [Compound 204]: the IC50 lay within 0.001 to 5 µM. For `O=C(c1cc(-c2ccncc2)n(-c2ccc(C(F)(F)F)nc2)n1)N1CCC2(CC1)SCCS2` [Compound 128], the IC50 is greater than 25 µM. Consider `Cc1c(C(=O)N2CCC3(CC2)C(=O)NCN3c2ccc(F)cc2)nn(-c2cc(F)c(F)c(F)c2)c1-c1cccnc1` [Compound 266], for which the IC50 is 0.001 to 5 µM. Regarding `O=C(Nc1ccc2c(c1)COC2=O)c1cc(-c2ccncc2)n(-c2cnccn2)n1` [Compound 134], the IC50 is greater than 25 µM.

With `N#Cc1c(F)ccc2[nH]c(=O)n(C3CCN(C(=O)c4cc(-c5cccnc5)n(-c5cc(F)c(F)c(F)c5)n4)CC3)c12` [Compound 233], the IC50 lay within 0.001 to 5 µM.

On to `Cn1c(=O)c(=O)n(C)c2cc(NC(=O)c3cc(-c4ccncc4)n(-c4ccc(C(F)(F)F)cc4)n3)ccc21` [Compound 69], for which the IC50 was greater than 25 µM. Same read-out and setting: under `O=C(c1cc(-c2ccncc2)n(-c2ccc(C(F)(F)F)cc2)n1)N1CCC2(CC1)OCc1ccccc12` [Compound 57] stands greater than 25 µM; under `CC1CC(n2c(=S)[nH]c3ccc(F)c(F)c32)CCN1C(=O)c1cc(-c2cccnc2)n(-c2ccc(F)c(C(F)(F)F)c2)n1` (centres unmarked) [Compound 294], 0.001 to 5 µM. On the same count and under the same terms, under `Cn1c(=O)n(C2CCN(C(=O)c3cc(-c4ccncc4)n(-c4ccc(C(F)(F)F)cc4)n3)CC2)c2ccccc21` [Compound 61] stands greater than 25 µM; under `CN1C(=O)COc2cc(NC(=O)c3cc(-c4ccncc4)n(-c4ccc(C(F)(F)F)cc4)n3)ccc21` [Compound 67], greater than 25 µM. With `O=C(c1cc(-c2ccncc2)n(-c2ccccc2)n1)N1CCC2(CC1)OCc1ccccc12` [Compound 170], the IC50 was greater than 25 µM. On the same count and under the same terms, in the case of `O=C(c1cc(-c2cccnc2)n(-c2ccc(C(F)(F)F)c(F)c2)n1)N1CCC2(CC1)C(=O)NCN2c1ccc(OC(F)F)cc1` [Compound 188] it was 0.001 to 5 µM; in that of `O=C(c1cc(-c2ccncc2)n(-c2ccc(C(F)(F)F)cc2)n1)N1CCC(n2c(=O)[nH]c3cc(C(F)(F)F)ccc32)CC1` [Compound 178], 5 to 25 µM; in that of `CN1C(=O)COc2cc(NC(=O)c3cc(-c4ccncc4)n(-c4ccc(C(F)(F)F)c(F)c4)n3)ccc21` [Compound 110], greater than 25 µM. Take `O=C(c1cc(-c2ccncc2)n(-c2ccccc2)n1)N1CCC2(CCCC2)CC1` [Compound 4]: the IC50 is greater than 25 µM. Regarding `O=C(c1cc(-c2ccncc2)n(-c2ccc(F)cc2F)n1)N1CCC2(CC1)C(=O)NCN2c1ccccc1` [Compound 152], the IC50 was greater than 25 µM. Same read-out and setting: under `CC1CC(n2c(=O)[nH]c3ccc(F)c(F)c32)CCN1C(=O)c1cc(-c2cccnc2)n(-c2ccc(F)c(C(F)(F)F)c2)n1` (centres unmarked) [Compound 293] stands 0.001 to 5 µM. With `O=C(c1cc(-c2ccncc2)n(-c2ccc(F)c(F)c2)n1)N1CCN2C(=O)OC[C@@H]2C1` [Compound 94], the IC50 is greater than 25 µM. On the same count and under the same terms, under `O=C1Nc2ccc(F)cc2C2(CCN(C(=O)c3cc(-c4cccnc4)n(-c4cc(F)c(F)c(F)c4)n3)CC2)O1` [Compound 231] stands 0.001 to 5 µM; under `O=C(c1cc(-c2ccncc2)n(-c2ccc(C(F)(F)F)c(F)c2)n1)N1CCC2(CC1)C(=O)NCN2c1ccc(OC(F)(F)F)cc1` [Compound 179], greater than 25 µM; under `O=C(c1cc(-c2ccncc2)n(-c2cccc(C(F)(F)F)c2)n1)N1CCC2(CC1)C(=O)NCN2c1ccccc1` [Compound 146], 5 to 25 µM. Turning to `O=C1Nc2ccccc2C1N1CCN(C(=O)c2cc(-c3cccnc3)n(-c3ccc(C(F)(F)F)c(F)c3)n2)CC1` (centres unmarked) [Compound 258], the IC50 was greater than 25 µM. Still for that read-out and setting: in the case of `O=C1Nc2ccc(F)c(F)c2C2(CCN(C(=O)c3cc(-c4cccnc4)n(-c4ccc(F)c(C(F)(F)F)c4)n3)CC2)O1` [Compound 272] it was 0.001 to 5 µM; in that of `O=C(c1cc(-c2cccnc2)n(-c2ccc(Cl)c(C(F)(F)F)c2)n1)N1CCC(n2c(=O)[nH]c3ccc(F)c(F)c32)CC1` [Compound 295], 0.001 to 5 µM.

As for `O=C1Nc2ccc(F)cc2C2(CCN(C(=O)c3cc(-c4cccnc4)n(-c4ccc(F)c(C(F)(F)F)c4)n3)CC2)O1` [Compound 282], the IC50 was 0.001 to 5 µM. As to `O=C(c1cc(-c2ccncc2)n(-c2cc(F)c(F)c(F)c2)n1)N1CCC2(CC1)C(=O)NCN2c1ccccc1` [Compound 140], the IC50 fell in the range of 5 to 25 µM.

`O=C(c1cc(-c2cccnc2)n(-c2ccc(I)c(C(F)(F)F)c2)n1)N1CCC2(CC1)C(=O)NCN2c1ccc(F)cc1` [Compound 326]: the IC50 fell in the range of 0.001 to 5 µM. On the same count and under the same terms, in the case of `CC1CC(n2c(=O)[nH]c3ccc(F)c(F)c32)CC(C)N1C(=O)c1cc(-c2cccnc2)n(-c2ccc(C(F)(F)F)c(F)c2)n1` (centres unmarked) [Compound 194] it was 5 to 25 µM.
